Data as given in patent publication US9067894B1, “Compound, composition, and method of activating GIRK potassium channel and use of same for treating conditions of interest” (Vanderbilt University, priority 2013, dated 2015).
Like-named read-outs stand apart in the source and are kept apart here.

How the values were obtained:
hERG (Kv11.1) = molecular target: T1, hERG (Kv11.1) (Homo sapiens, UniProt Q12809); experiment: Thallium flux assay, hERG-expressing cells; type: cell-based; conditions: human, T-REx-293 cells expressing hERG (Kv11.1), pH 7.3, at 100 μM; 100% inhibition defined by maximally effective dofetilide; read-out: maximum inhibition of hERG
T1 construct: expressed in transfected cells; host or cells: T-REx-293
Source text: (§1) Cell Line Construction and Cell Culture. HEK-293 cells co-expressing human GIRK1/2 and rat mGlu8 were generated as previously described (Niswender et al., 2008). A HEK-293 cell line (ATCC, Manassas, Va.) expressing human GIRK1 and human GIRK2 was constructed by transfecting HEK-293 cells with GIRK1 and GIRK2 (Origene, Rockville, Md.) cloned into the pBudCE4.1 vector (Life Technologies, Carlsbad, Calif.) using FuGene 6 (Promega, Madison, Wis.) transfection reagent. Unless otherwise noted, other ion channel-expressing cells were prepared by transfecting HEK-293 cells with individual or combinations of subunits: GIRK1, pCMV6-A-BSD; GIRK2, pCMV6-A-puro; GIRK3, pCMV6-A-hygro; GIRK4, pCMV6-A-AC; Kv7.4, pIRESneo3. The Kir2.1 and hERG-expressing cell lines were made by transfecting T-REx-293 cells (Life Technologies, Carlsbad, Calif.) with Kir2.1 and Kv11.1, respectively, cloned into pcDNA5TO. Monoclonal cell lines were produced by limiting-dilution cloning of antibiotic-resistant cells and functional selection using the thallium flux assay described below. Unless otherwise noted, cells were maintained in Minimal Essential Medium, Alpha Medium (Mediatech, Manassas, Va.) supplemented with 10% fetal bovine serum (Sigma-Aldrich, Saint Louis, Mo.) and GlutaGro (Mediatech, Manassas, Va.), referred to henceforth as cell culture medium. Cell culture medium was further supplemented with selection antibiotics, as appropriate.
(§2) For thallium flux assays, cells were dislodged from tissue culture flasks using TrypLE Express (Life Technologies, Carlsbad, Calif.), transferred to a 50 mL centrifuge tube, and spun at 500×g for 2 min. The supernatant solution was removed by aspiration and the pellet was resuspended at concentration of ˜1000 cells/μL. Twenty μL/well of the cell suspension was transferred to 384-well, amine-coated assay plates (cat#354719, BD, Franklin Lakes, N.J.) using an electronic multichannel pipette. Plated cells were incubated overnight in a humidified 5% CO2 cell culture incubator at 37° C. […]

hERG potassium channel = molecular target: T2, hERG potassium channel (Homo sapiens, UniProt Q12809); experiment: Thallium flux assay, hERG-expressing cells; type: cell-based; conditions: hERG inhibition, thallium flux
T2 construct: expressed in transfected cells; host or cells: T-REx-293
Source text: as §1, §2

Purinergic P2X = experiment: Radioligand displacement (Ricerca); type: binding, rabbit; conditions: 10 μM
Transporter, DAT = molecular target: T3, Transporter, DAT (Homo sapiens, UniProt Q01959); experiment: Radioligand displacement (Ricerca); type: binding
T3 construct: Ricerca (contract panel)

Glutamate (NMDA, PCP) = experiment: Radioligand displacement (Ricerca); type: binding, rat; conditions: 10 μM
[1] = system: L-Type Ca channel (dihydropyridine); experiment: Radioligand displacement (Ricerca); type: binding, rat; conditions: 10 μM
Sigma σl = molecular target: T4, Sigma σl (Homo sapiens, UniProt Q99720); experiment: Radioligand displacement (Ricerca); type: binding
T4 construct: Ricerca (contract panel)

Estrogen ERα = molecular target: T5, Estrogen ERα (Homo sapiens, UniProt P03372); experiment: Radioligand displacement (Ricerca); type: binding
T5 construct: Ricerca

[2] = Microsomal clearance, murine liver microsomes; type: in vitro ADME, mouse
Method: DMPK Methods. […] After a 5 min preincubation, the reaction was initiated by addition of NADPH (1 mM). At selected time intervals (0, 3, 7, 15, 25, and 45 min), 50 μL aliquots were taken and subsequently placed into a 96-well plate containing 150 μL of cold acetonitrile with internal standard (50 ng/mL carbamazepine). Plates were then centrifuged at 3000 rcf (4° C.) for 10 min, and the supernatant was transferred to a separate 96-well plate and diluted 1:1 with water for LC/MS/MS analysis. […] Liquid Chromatography/Mass Spectrometry Analysis. In vitro experiments. VU0456810 was analyzed on a Thermo Electron TSQ Quantum Ultra triple quad mass spectrometer (San Jose, Calif.) via electrospray ionization (ESI) with two Themo Electron Accella pumps (San Jose, Calif.), and a Leap Technologies CTC PAL autosampler (Carrboro, N.C.). Analytes were separated by gradient elution on a dual column system with two Thermo Hypersil Gold (2.1×30 mm, 1.9 μm) columns (San Jose, Calif.) at 40° C. […] The total run time was 1.3 min and the HPLC flow rate was 0.8 mL/min. […] Compound optimization, data collection and processing were performed using Thermo Electron's QuickQuan software (v2.3) and Xcalibur (v2.0.7 SP1).

Adrenergic α1A = molecular target: T6, Adrenergic α1A (Rattus norvegicus, UniProt P43140); experiment: Radioligand displacement (Ricerca); type: binding
T6 construct: Ricerca (contract assay)

Opiate (MOP) = molecular target: T7, Opiate (MOP) (Homo sapiens, UniProt P35372); experiment: Radioligand displacement (Ricerca); type: binding
T7 construct: Ricerca (contract laboratory that ran the panel)
T7 sequence (P35372 whole entry): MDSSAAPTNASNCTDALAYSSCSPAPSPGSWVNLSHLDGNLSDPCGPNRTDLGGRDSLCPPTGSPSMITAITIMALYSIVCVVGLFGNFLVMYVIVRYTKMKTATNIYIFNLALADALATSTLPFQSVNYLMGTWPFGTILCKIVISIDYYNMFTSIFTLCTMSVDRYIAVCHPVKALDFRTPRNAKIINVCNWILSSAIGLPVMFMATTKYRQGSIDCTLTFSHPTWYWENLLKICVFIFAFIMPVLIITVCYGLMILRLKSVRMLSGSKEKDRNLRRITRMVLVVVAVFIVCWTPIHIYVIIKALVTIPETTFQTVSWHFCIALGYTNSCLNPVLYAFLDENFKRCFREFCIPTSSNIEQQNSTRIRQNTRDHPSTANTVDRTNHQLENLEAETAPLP

T4 sequence (Q99720 whole entry): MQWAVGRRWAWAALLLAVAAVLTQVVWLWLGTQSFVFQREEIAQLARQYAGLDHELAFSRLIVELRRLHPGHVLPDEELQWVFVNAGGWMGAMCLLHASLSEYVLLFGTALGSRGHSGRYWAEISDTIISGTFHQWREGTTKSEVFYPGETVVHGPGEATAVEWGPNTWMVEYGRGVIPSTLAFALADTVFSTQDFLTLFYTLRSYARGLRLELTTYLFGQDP
T2 sequence (Q12809 whole entry): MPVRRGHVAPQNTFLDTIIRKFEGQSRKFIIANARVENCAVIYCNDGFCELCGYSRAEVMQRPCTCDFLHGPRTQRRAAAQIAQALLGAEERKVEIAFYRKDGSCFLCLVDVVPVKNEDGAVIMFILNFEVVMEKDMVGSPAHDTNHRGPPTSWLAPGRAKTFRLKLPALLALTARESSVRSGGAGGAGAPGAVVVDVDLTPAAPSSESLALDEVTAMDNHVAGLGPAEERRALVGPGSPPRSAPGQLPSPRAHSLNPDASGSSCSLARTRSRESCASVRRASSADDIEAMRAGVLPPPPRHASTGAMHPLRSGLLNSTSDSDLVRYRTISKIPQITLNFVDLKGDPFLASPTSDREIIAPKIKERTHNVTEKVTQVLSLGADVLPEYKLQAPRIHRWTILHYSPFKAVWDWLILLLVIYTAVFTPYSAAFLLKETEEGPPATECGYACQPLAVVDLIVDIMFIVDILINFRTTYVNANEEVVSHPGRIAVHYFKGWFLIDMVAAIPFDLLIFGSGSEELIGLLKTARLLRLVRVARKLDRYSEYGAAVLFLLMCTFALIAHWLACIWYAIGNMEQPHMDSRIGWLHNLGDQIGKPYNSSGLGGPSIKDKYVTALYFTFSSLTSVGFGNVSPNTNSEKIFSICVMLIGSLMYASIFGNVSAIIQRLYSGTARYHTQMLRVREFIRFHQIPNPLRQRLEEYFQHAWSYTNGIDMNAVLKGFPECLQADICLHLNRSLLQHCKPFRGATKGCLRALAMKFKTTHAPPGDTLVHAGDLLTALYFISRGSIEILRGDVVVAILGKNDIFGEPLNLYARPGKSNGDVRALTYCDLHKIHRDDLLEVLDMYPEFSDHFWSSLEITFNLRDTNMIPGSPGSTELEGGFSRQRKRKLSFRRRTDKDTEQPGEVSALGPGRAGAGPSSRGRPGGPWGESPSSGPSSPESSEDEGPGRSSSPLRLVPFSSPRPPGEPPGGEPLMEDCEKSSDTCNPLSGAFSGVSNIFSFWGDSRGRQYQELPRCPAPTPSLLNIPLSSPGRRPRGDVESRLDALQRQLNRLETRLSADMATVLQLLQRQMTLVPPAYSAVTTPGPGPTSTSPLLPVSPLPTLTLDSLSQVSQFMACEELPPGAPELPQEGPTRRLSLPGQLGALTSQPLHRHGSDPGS
T6 sequence (P43140 whole entry): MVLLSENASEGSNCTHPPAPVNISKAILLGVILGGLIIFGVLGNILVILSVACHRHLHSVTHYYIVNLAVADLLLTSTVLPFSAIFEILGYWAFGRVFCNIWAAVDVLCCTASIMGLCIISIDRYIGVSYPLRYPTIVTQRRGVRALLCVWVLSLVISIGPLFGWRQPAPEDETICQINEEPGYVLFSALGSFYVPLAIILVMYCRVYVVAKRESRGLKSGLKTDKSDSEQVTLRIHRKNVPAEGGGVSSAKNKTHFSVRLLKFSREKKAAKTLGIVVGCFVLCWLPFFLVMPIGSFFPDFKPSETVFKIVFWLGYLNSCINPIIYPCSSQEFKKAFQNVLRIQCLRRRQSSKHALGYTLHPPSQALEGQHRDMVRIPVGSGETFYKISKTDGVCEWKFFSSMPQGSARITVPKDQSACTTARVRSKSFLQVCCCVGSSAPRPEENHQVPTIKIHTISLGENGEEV
T5 sequence (P03372 whole entry): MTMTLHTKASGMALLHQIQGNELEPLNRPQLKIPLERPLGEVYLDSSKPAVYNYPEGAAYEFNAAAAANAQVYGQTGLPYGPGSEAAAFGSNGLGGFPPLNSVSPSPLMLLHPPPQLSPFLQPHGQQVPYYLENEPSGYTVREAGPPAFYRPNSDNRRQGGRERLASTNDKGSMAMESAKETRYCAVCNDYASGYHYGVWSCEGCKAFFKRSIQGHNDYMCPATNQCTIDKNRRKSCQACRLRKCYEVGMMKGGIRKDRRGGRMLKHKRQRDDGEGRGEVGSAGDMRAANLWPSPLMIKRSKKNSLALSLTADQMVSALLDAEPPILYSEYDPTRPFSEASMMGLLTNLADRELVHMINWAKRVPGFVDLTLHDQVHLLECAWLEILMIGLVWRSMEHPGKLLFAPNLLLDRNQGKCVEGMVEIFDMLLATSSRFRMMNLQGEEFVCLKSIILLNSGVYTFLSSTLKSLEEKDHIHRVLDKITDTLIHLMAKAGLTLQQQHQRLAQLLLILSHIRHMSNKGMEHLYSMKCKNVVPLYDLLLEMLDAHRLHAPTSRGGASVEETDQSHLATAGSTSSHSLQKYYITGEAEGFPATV
T1 sequence (Q12809 whole entry): as the sequence (Q12809 whole entry) above
T3 sequence (Q01959 whole entry): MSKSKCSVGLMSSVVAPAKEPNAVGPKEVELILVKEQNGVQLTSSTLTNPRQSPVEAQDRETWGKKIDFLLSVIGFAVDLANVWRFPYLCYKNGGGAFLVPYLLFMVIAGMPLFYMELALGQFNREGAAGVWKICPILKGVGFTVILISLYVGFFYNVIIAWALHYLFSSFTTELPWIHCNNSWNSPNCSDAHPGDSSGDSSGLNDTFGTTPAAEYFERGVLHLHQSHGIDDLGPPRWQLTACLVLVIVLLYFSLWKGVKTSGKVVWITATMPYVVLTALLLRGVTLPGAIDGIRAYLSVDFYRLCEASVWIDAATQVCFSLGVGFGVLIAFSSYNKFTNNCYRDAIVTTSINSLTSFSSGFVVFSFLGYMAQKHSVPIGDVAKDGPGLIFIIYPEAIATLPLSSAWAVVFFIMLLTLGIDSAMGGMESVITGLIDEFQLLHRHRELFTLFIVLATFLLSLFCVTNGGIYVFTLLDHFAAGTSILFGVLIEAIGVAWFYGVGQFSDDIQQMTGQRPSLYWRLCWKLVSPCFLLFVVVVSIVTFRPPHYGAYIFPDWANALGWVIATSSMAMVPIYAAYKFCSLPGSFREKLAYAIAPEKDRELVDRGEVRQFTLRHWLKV

`Cc1cc(NC(=O)Nc2ccc(F)c(F)c2)n(-c2ccccc2)n1` [VU0456810, 1-(3,4-difluorophenyl)-3-(3-methyl-1-phenyl-1H-pyrazol-5-yl)urea] gave an inhibition at 20 min, 100 µM (hERG (Kv11.1)) of roughly 60%, an IC50 (hERG potassium channel; read-out: IC50) of roughly 10 µM and an IC50 (hERG potassium channel; average ± SEM, read-out: Potency) of 10.1 ± 7 µM. The “% Inhibition” value (Purinergic P2X) was 16%, the inhibition at 10 µM (Transporter, DAT) was 12% and the “% Inhibition” value (Glutamate (NMDA, PCP)) was 1%. For the same compound, the “% Inhibition” value [1] was 3%, the inhibition at 10 µM (Sigma σl) was less than 50% and the “% Inhibition” value (Sigma σl; 10 μM) was 49%. It also gave an inhibition at 10 µM (Estrogen ERα) of 1%, a rClHEP [2] of 88 mL/min/kg and a CLhep predicted at 1 μM ([2]; mouse, pH 7.4) of 88 mL/min/kg. It also gave an inhibition at 10 µM (Adrenergic α1A) of 4% and an inhibition at 10 µM (Opiate (MOP)) of 21%.
